Data from patent EP4667483A1, “HUMAN TRANSFERRIN RECEPTOR-BINDING PEPTIDE” (JCR Pharmaceuticals Co., Ltd., priority 2023, dated 2024).
Numbered stars: 1 amine (or outer) side, 2 acyl side, 3 side chain; on linkers, the order of the positions; unused ones are H or OH. Bridge positions count the residues as written; N and C are the ends. Square brackets hold non-standard residues; d marks the D form. Peptide text beside a SMILES is read from it. * marks the point of attachment. Trp(1-CH2COOH) = N[C@@H](Cc1cn(CC(=O)O)c2ccccc12)C(=O)O; NMePhe(4-COOH) = CN[C@@H](Cc1ccc(C(=O)O)cc1)C(=O)O; X1 = O=C([C@H](Cc1cccc(C(=O)[*:3])c1)N[*:1])[*:2]; Nle(6-morpholino) = N[C@@H](CCCCN1CCOCC1)C(=O)O; Phe(3-COOH) = N[C@@H](Cc1cccc(C(=O)O)c1)C(=O)O; Trp(7-aza) = N[C@@H](Cc1c[nH]c2ncccc12)C(=O)O; NH(CH2CH2O)8Me = COCCOCCOCCOCCOCCOCCOCCOCCN*; NMePhe(3-Cl) = CN[C@@H](Cc1cccc(Cl)c1)C(=O)O; 3Pal(6-NH2) = Nc1ccc(C[C@H](N)C(=O)O)cn1; NMeY = CN[C@@H](Cc1ccc(O)cc1)C(=O)O; Nva(3-Et) = CCC(CC)[C@H](N)C(=O)O; 4Pal = N[C@@H](Cc1ccncc1)C(=O)O; PEG4 = NCCOCCOCCOCCOCCC(=O)O; Carboxymethyl = O=C(O)C*

Legend:
[1] = biological target: T1, human transferrin receptor (hTfR) (Homo sapiens, UniProt P02786); assay: SPR measurement under pH 6.0 conditions (Biacore T200, NTA chip, immobilized hTfR); type: binding; conditions: pH 6.0, single-cycle kinetics; read-out: hTfR SPR pH6.0 KD
[2] = biological target: T1, human transferrin receptor (hTfR); assay: SPR measurement under pH 7.4 conditions (Biacore T200, CM3 chip, hTfR captured by His Tag antibody); type: binding; conditions: pH 7.4, single-cycle kinetics; read-out: hTfR SPR pH7.4 KD

T1 sequence (P02786 whole entry): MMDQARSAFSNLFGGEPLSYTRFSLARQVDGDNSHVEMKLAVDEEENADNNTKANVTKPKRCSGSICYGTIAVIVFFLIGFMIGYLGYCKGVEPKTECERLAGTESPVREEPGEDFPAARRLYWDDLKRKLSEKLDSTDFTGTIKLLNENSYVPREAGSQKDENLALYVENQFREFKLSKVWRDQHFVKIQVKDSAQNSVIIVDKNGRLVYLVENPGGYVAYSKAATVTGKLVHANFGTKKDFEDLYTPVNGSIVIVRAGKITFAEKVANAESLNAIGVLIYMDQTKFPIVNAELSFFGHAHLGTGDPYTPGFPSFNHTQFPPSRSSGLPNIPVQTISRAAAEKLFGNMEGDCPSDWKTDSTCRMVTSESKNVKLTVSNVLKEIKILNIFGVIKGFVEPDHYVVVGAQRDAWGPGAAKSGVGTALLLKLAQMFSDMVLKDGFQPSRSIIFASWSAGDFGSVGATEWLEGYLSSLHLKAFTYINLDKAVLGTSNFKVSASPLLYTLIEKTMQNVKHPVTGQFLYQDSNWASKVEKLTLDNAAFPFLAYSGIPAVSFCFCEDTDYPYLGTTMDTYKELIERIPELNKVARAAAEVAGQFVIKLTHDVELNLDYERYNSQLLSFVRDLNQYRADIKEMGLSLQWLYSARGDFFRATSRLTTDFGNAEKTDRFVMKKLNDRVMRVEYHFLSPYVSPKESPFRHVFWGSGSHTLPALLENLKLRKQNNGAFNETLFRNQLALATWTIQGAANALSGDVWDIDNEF

Kd [1] [nM] | Kd [2] [nM] | SMILES
601 | 107 | CCC(CC)[C@@H]1NC(=O)[C@H](Cc2ccc(OCC(=O)O)cc2)NC(=O)[C@H](Cc2ccc(N)nc2)NC(=O)[C@H](CC(N)=O)NC(=O)[C@H](Cc2c[nH]c3ncccc23)NC(=O)[C@H](C(C)C)NC(=O)[C@H](Cc2cccc(Cl)c2)N(C)C(=O)[C@H](C(C)C)NC(=O)[C@H](C)NC(=O)CSC[C@@H](C(=O)NCCOCCOCCOCCOCCC(N)=O)NC(=O)[C@H](Cc2ccc(O)cc2)N(C)C(=O)[C@H](Cc2cccc(C(=O)O)c2)NC(=O)[C@H](CCCNC(=N)N)NC(=O)[C@H](CCC(=O)NCCOCCOCCOCCOCCOCCOCCOCCOC)NC(=O)[C@H]([C@@H](C)CC)NC1=O [compound 43] ({CH2CO}-AV[NMePhe(3-Cl)]V[Trp(7-aza)]N[3Pal(6-NH2)]Y(Carboxymethyl)[Nva(3-Et)]IE(NH(CH2CH2O)8Me)R[Phe(3-COOH)][NMeY]C[PEG4]-NH2; thioether N-15)
339 | 36.6 | CCC(CC)[C@@H]1NC(=O)[C@H](Cc2ccc(OCC(=O)O)cc2)NC(=O)[C@H](Cc2ccc(N)nc2)NC(=O)[C@H](CC(N)=O)NC(=O)[C@H](Cc2c[nH]c3ncccc23)NC(=O)[C@H](C(C)C)NC(=O)[C@H](Cc2cccc(Cl)c2)N(C)C(=O)[C@H](C(C)C)NC(=O)[C@H](C)NC(=O)CSC[C@@H](C(=O)NCCOCCOCCOCCOCCC(N)=O)NC(=O)[C@H](Cc2ccc(O)cc2)N(C)C(=O)[C@H](Cc2cccc(C(=O)NCCOCCOCCOCCOCCC(=O)O)c2)NC(=O)[C@H](CCCNC(=N)N)NC(=O)[C@H](CCC(N)=O)NC(=O)[C@H]([C@@H](C)CC)NC1=O [compound 44] ({CH2CO}-AV[NMePhe(3-Cl)]V[Trp(7-aza)]N[3Pal(6-NH2)]Y(Carboxymethyl)[Nva(3-Et)]IQR[X1](PEG4)[NMeY]C[PEG4]-NH2; thioether N-15)
869 | 75.5 | CCC(CC)[C@@H]1NC(=O)[C@H](Cc2ccc(OCC(=O)O)cc2)NC(=O)[C@H](Cc2ccc(N)nc2)NC(=O)[C@H](CC(N)=O)NC(=O)[C@H](Cc2c[nH]c3ncccc23)NC(=O)[C@H](C(C)C)NC(=O)[C@H](Cc2cccc(Cl)c2)N(C)C(=O)[C@H](C(C)C)NC(=O)[C@H](C)NC(=O)CSC[C@@H](C(=O)NCCOCCOCCOCCOCCC(N)=O)NC(=O)[C@H](Cc2ccc(C(=O)O)cc2)N(C)C(=O)[C@H](Cc2cccc(C(=O)O)c2)NC(=O)[C@H](CCCNC(=N)N)NC(=O)[C@H](CCC(N)=O)NC(=O)[C@H]([C@@H](C)CC)NC1=O [compound 45] ({CH2CO}-AV[NMePhe(3-Cl)]V[Trp(7-aza)]N[3Pal(6-NH2)]Y(Carboxymethyl)[Nva(3-Et)]IQR[Phe(3-COOH)][NMePhe(4-COOH)]C[PEG4]-NH2; thioether N-15)
249 | 116 | CCC(CC)[C@@H]1NC(=O)[C@H](Cc2ccc(OCC(=O)O)cc2)NC(=O)[C@H](Cc2ccc(N)nc2)NC(=O)[C@H](CC(N)=O)NC(=O)[C@H](Cc2cn(CC(=O)O)c3ccccc23)NC(=O)[C@H](C(C)C)NC(=O)[C@H](Cc2cccc(Cl)c2)N(C)C(=O)[C@H](C(C)C)NC(=O)[C@H](C)NC(=O)CSC[C@@H](C(=O)NCCOCCOCCOCCOCCC(N)=O)NC(=O)[C@H](Cc2ccc(O)cc2)N(C)C(=O)[C@H](Cc2ccncc2)NC(=O)[C@H](CCCCN2CCOCC2)NC(=O)[C@H](CCC(N)=O)NC(=O)[C@H]([C@@H](C)CC)NC1=O [compound 47] ({CH2CO}-AV[NMePhe(3-Cl)]V[Trp(1-CH2COOH)]N[3Pal(6-NH2)]Y(Carboxymethyl)[Nva(3-Et)]IQ[Nle(6-morpholino)][4Pal][NMeY]C[PEG4]-NH2; thioether N-15)
